Paper PMC12120644, “Modulation of the Inflammatory Process through the Control of Cyclooxygenase Using Peptides Obtained from Lithobates Catesbeianus Identified by Molecular Docking” (ACS Omega, 2025)
“Also recorded” adds a separate entry of the source. No end group written: not given here.

Assays:
total cyclooxygenase = test: COX inhibition assay (total COX activity, LPS-stimulated RAW 264.7); assay type: cell-based; conditions: RAW 264.7 stimulated with LPS 1 μg/mL for 4 h, peptide 1 mM, chemiluminescent enzymatic kit (Cayman), vs LPS control, t test P < 0.05
Experimental: The in vitro total cyclooxygenase inhibition was evaluated using a chemiluminescent enzymatic kit (Cayman Chemical, MI), according to the manufacturer’s protocol. The RAW 264.7 cell line was purchased from the American Type Culture Collection (Rockville, MD) and routinely grown in DMEM supplemented with 10% fetal bovine serum (FBS). The cells were subcultured every 3 to 4 days at 1 × 10^8 cells/mL. The positive control group was exposed to lipopolysaccharide (LPS) at 1 μg/mL for 4 h to induce inflammation. Cells were collected and centrifuged at 600g for 10 min at 4 °C. The supernatant was carefully removed and cells were resuspended in 2 mL of DMEM, resulting in 1 × 10^8 cells/mL.
4 Effect of SGHPGAMGPVGPR (P1), IGPAGSAGSR (P2), GPSGPAGARGDK (P3), and […] (P4) peptides on the total COX activity. The RAW 264.7 cells were subcultured at 1 × 10^8 cells/mL density and stimulated with LPS at 1 μg/mL for 4 h. Cells were collected by centrifugation at a speed of 2.000 rpm for 10 min at 4 °C and were resuspended in DMEM. After that, cells were treated with the peptides, and ELISA was performed. Significant by the t test (P < 0.05). CTRL: control (cells stimulated with LPS).

IL-6 = IL-6 immunoassay (ELISA), LPS-stimulated macrophages; assay type: cell-based, murine; conditions: LPS 1 μg/mL for 4 h, 1 mM the only significant of 0.025, 0.05, 0.5, and 1 mM, ELISA 405 nm
Experimental: Quantification of IL-6 was determined using the Murine Mini ABTS IL-6 ELISA kit (PeproTech, Cat No. 900-M50), according to the manufacturer’s instructions. The absorbance was measured at 405 nm, and IL-6 concentrations were quantified based on the IL-6 standard curve (0−4000 pg/mL).
5 IL-6 concentration (pg/mL) in macrophages treated at 0.025, 0.05, 0.5, and 1.0 mM peptide 1 and exposure to 1 μg/mL LPS for 4 h. Ctrl-: Negative control (cells + DMEM); Ctrl+: Positive control 1 (cells + DMEM+ and LPS); P1 (cells + DMEM + peptide at different concentrations + LPS). Data (n = 3) are expressed as mean and standard error.

SGHPGAMGPVGPR [Peptide P1]
total COX activity (in words) (total cyclooxygenase): effectively inhibiting total COX activity; also recorded: only peptide P1 exhibited an inhibitory capacity on the total COX activity; also recorded: only P1 demonstrated the ability to reduce the total COX activity | total COX activity (in words) (total cyclooxygenase; listed as peptide 1): best results in decreasing the cells’ total COX | IL-6 levels (in words) (IL-6; n = 3): downregulating IL-6 expression; also recorded: significantly downregulated IL-6 levels in a dose-dependent manner | IL-6 levels (in words) (IL-6; n = 3, listed as peptide 1): best results in decreasing the cells’ total COX and IL-6 cytokines
